In PubChem BioAssay AID1963430 (Molecular Pharmacology Branch, DTP, NCI, 2024):
Where “and” joins values, the source holds several entries; their conditions need not be identical. Equal values may be shown once.

Test system: 521955-158-R2-J5-PDC complex spheroid growth, % test/control
Assay: Anticancer human tumor 521955-158-R2-J5-PDC patient-derived pancreatic carcinoma cell line growth inhibition [Asc]
Conditions: for viability, T/C: stronger effect = lower value
In short: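 Stromal components (HUVEC and hMSC) are co-assembled with the cancer cells into multicellular spheroids. Drugs are then added singly or paired, at concentrations falling by half-log increments from a clinically achievable maximum, capped at 10 microM without known Cmax.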

[1] = curve of first compound, second compound 0.01 µM
[2] = curve of first compound, second compound 0.0316 µM
[3] = curve of first compound, second compound 0.1 µM
[4] = curve of first compound, second compound 0.316 µM
[5] = curve of first compound, second compound 1 µM
[6] = second compound 0.01 µM, first compound 0.00316 µM
[7] = second compound 0.01 µM, first compound 0.01 µM
[8] = second compound 0.01 µM, first compound 0.0316 µM
[9] = second compound 0.01 µM, first compound 0.1 µM
[10] = second compound 0.0316 µM, first compound 0.00316 µM
[11] = second compound 0.0316 µM, first compound 0.01 µM
[12] = second compound 0.0316 µM, first compound 0.0316 µM
[13] = second compound 0.0316 µM, first compound 0.1 µM
[14] = second compound 0.1 µM, first compound 0.000316 µM
[15] = second compound 0.1 µM, first compound 0.001 µM
[16] = second compound 0.1 µM, first compound 0.00316 µM
[17] = second compound 0.1 µM, first compound 0.01 µM
[18] = second compound 0.1 µM, first compound 0.0316 µM
[19] = second compound 0.1 µM, first compound 0.1 µM
[20] = second compound 0.316 µM, first compound 0.000316 µM
[21] = second compound 0.316 µM, first compound 0.001 µM
[22] = second compound 0.316 µM, first compound 0.00316 µM
[23] = second compound 0.316 µM, first compound 0.01 µM
[24] = second compound 0.316 µM, first compound 0.0316 µM
[25] = second compound 0.316 µM, first compound 0.1 µM
[26] = second compound 1 µM, first compound 0.000316 µM
[27] = second compound 1 µM, first compound 0.001 µM
[28] = second compound 1 µM, first compound 0.00316 µM
[29] = second compound 1 µM, first compound 0.01 µM
[30] = second compound 1 µM, first compound 0.0316 µM
[31] = second compound 1 µM, first compound 0.1 µM
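Note: spheroids exposed to agents for 7 days before readout.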
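Throughout, for viability, T/C: 100% = DMSO vehicle control viability.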

Cn1ncnc1[C@H]1c2n[nH]c(=O)c3cc(F)cc(c23)N[C@@H]1c1ccc(F)cc1 + CNC(C)C(=O)NC1CN(S(=O)(=O)c2cccc(S(=O)(=O)N3CCC4CCC(C(=O)NC(c5ccccc5)c5ccccc5)N4C(=O)C(NC(=O)C(C)NC)C3)c2)CCC2CCC(C(=O)NC(c3ccccc3)c3ccccc3)N2C1=O
IC50 [1]: > 100 nM | IC50 [2]: > 100 nM | IC50 [3]: > 100 nM | IC50 [4]: > 100 nM | IC50 [5]: > 100 nM | viability, T/C (second compound 0.01 µM, first compound 0.000316 µM): 103% | viability, T/C (second compound 0.01 µM, first compound 0.001 µM): 103% | viability, T/C [6]: 85.7% | viability, T/C [7]: 65.6% | viability, T/C [8]: 65.4% | viability, T/C [9]: 71.9% | viability, T/C (second compound 0.0316 µM, first compound 0.000316 µM): 103% | viability, T/C (second compound 0.0316 µM, first compound 0.001 µM): 102% | viability, T/C [10]: 89.6% | viability, T/C [11]: 78% | viability, T/C [12]: 62.3% | viability, T/C [13]: 64.1% | viability, T/C [14]: 80.8% | viability, T/C [15]: 108% | viability, T/C [16]: 91% | viability, T/C [17]: 76.5% | viability, T/C [18]: 86.9% | viability, T/C [19]: 56.2% | viability, T/C [20]: 100% | viability, T/C [21]: 83% | viability, T/C [22]: 96.4% | viability, T/C [23]: 79.2% | viability, T/C [24]: 73.4% | viability, T/C [25]: 63.2% | viability, T/C [26]: 108% | viability, T/C [27]: 75.1% | viability, T/C [28]: 102% | viability, T/C [29]: 89.5% | viability, T/C [30]: 68.3% | viability, T/C [31]: 86.6%

Cn1ncnc1[C@H]1c2n[nH]c(=O)c3cc(F)cc(c23)N[C@@H]1c1ccc(F)cc1 + CCN1C(C(=O)NC23CCC(C(=O)O)(CC2)CC3)C(c2cccc(Cl)c2F)C2(C(=O)Nc3cc(Cl)ccc32)C12CCCCC2
IC50 (curve of first compound, second compound 0.03 µM): > 100 nM | IC50 (curve of first compound, second compound 0.0949 µM): > 100 nM | IC50 (curve of first compound, second compound 0.3 µM): > 100 nM | IC50 (curve of first compound, second compound 0.949 µM): > 100 nM | IC50 (curve of first compound, second compound 3 µM): > 100 nM | viability, T/C (second compound 0.03 µM, first compound 0.000316 µM): 142% | viability, T/C (second compound 0.03 µM, first compound 0.001 µM): 56.8% | viability, T/C (second compound 0.03 µM, first compound 0.00316 µM): 100% | viability, T/C (second compound 0.03 µM, first compound 0.01 µM): 57.9% | viability, T/C (second compound 0.03 µM, first compound 0.0316 µM): 76.7% | viability, T/C (second compound 0.03 µM, first compound 0.1 µM): 55.6% | viability, T/C (second compound 0.0949 µM, first compound 0.000316 µM): 104% | viability, T/C (second compound 0.0949 µM, first compound 0.001 µM): 77.5% | viability, T/C (second compound 0.0949 µM, first compound 0.00316 µM): 90.5% | viability, T/C (second compound 0.0949 µM, first compound 0.01 µM): 71.7% | viability, T/C (second compound 0.0949 µM, first compound 0.0316 µM): 66.6% | viability, T/C (second compound 0.0949 µM, first compound 0.1 µM): 49.4% | viability, T/C (second compound 0.3 µM, first compound 0.000316 µM): 90.6% | viability, T/C (second compound 0.3 µM, first compound 0.001 µM): 100% | viability, T/C (second compound 0.3 µM, first compound 0.00316 µM): 101% | viability, T/C (second compound 0.3 µM, first compound 0.01 µM): 110% | viability, T/C (second compound 0.3 µM, first compound 0.0316 µM): 78% | viability, T/C (second compound 0.3 µM, first compound 0.1 µM): 67.8% | viability, T/C (second compound 0.949 µM, first compound 0.000316 µM): 116% | viability, T/C (second compound 0.949 µM, first compound 0.001 µM): 135% | viability, T/C (second compound 0.949 µM, first compound 0.00316 µM): 107% | viability, T/C (second compound 0.949 µM, first compound 0.01 µM): 98.9% | viability, T/C (second compound 0.949 µM, first compound 0.0316 µM): 94.2% | viability, T/C (second compound 0.949 µM, first compound 0.1 µM): 73% | viability, T/C (second compound 3 µM, first compound 0.000316 µM): 146% | viability, T/C (second compound 3 µM, first compound 0.001 µM): 116% | viability, T/C (second compound 3 µM, first compound 0.00316 µM): 122% | viability, T/C (second compound 3 µM, first compound 0.01 µM): 130% | viability, T/C (second compound 3 µM, first compound 0.0316 µM): 122% | viability, T/C (second compound 3 µM, first compound 0.1 µM): 86.6%

NC1CCC(NC2CC2c2ccccc2)CC1 (configuration not stated) + Cc1c(S(C)(=O)=O)c(-c2cc(F)cc(N3CCN(c4ccc(NS(=O)(=O)c5ccc(NC(CCN6CCC(C(=O)OCCCP(=O)(O)O)CC6)CSc6ccccc6)c(S(=O)(=O)C(F)(F)F)c5)cc4)CC3)c2)c(-c2ccc(Cl)cc2)n1C(C)C
IC50 [3]: 2.46 nM | IC50 [4]: < 0.316 nM | IC50 [5]: < 0.316 nM | IC50 (curve of first compound, second compound 3.16 µM): < 0.316 nM | IC50 (curve of first compound, second compound 10 µM): 22.1 nM | viability, T/C [14]: 58% | viability, T/C [15]: 46.2% | viability, T/C [16]: 56.8% | viability, T/C [17]: 48.5% | viability, T/C [18]: 37.8% | viability, T/C [19]: 48.4% | viability, T/C [20]: 40.8% | viability, T/C [21]: 36.3% | viability, T/C [22]: 47.8% | viability, T/C [23]: 38.4% | viability, T/C [24]: 46% | viability, T/C [25]: 49% | viability, T/C [26]: 27.9% | viability, T/C [27]: 33.9% | viability, T/C [28]: 34.6% | viability, T/C [29]: 34.8% | viability, T/C [30]: 39.7% | viability, T/C [31]: 34.6% | viability, T/C (second compound 3.16 µM, first compound 0.000316 µM): 41.6% | viability, T/C (second compound 3.16 µM, first compound 0.001 µM): 32.8% | viability, T/C (second compound 3.16 µM, first compound 0.00316 µM): 25.4% | viability, T/C (second compound 3.16 µM, first compound 0.01 µM): 26.5% | viability, T/C (second compound 3.16 µM, first compound 0.0316 µM): 30.7% | viability, T/C (second compound 3.16 µM, first compound 0.1 µM): 33.9% | viability, T/C (second compound 10 µM, first compound 0.000316 µM): 58% | viability, T/C (second compound 10 µM, first compound 0.001 µM): 48.3% | viability, T/C (second compound 10 µM, first compound 0.00316 µM): 31.8% | viability, T/C (second compound 10 µM, first compound 0.01 µM): 71.6% | viability, T/C (second compound 10 µM, first compound 0.0316 µM): 44.7% | viability, T/C (second compound 10 µM, first compound 0.1 µM): 39.1%

C=CC(=O)N1CCN(c2nc(=O)n(-c3c(C)ccnc3C(C)C)c3nc(-c4c(O)cccc4F)c(F)cc23)C(C)C1 (configuration not stated)
viability, T/C (compound 0.0316 µM): 87.7% and 88.9% and 88.2% | viability, T/C (compound 0.1 µM): 72.1% and 90.3% and 87.8% | viability, T/C (compound 0.316 µM): 76.3% and 92.3% and 90.2% | viability, T/C (compound 1 µM): 108% and 87.7% and 113% | viability, T/C (compound 3.16 µM): 102% and 121% and 112% | viability, T/C (compound 10 µM): 101% (2×) and 95.5% | IC50 (curve of compound): > 10000 nM

CCN1CCN(Cc2ccc(Nc3ncc(F)c(-c4cc(F)c5nc(C)n(C(C)C)c5c4)n3)nc2)CC1 + CNC(C)C(=O)NC1CN(S(=O)(=O)c2cccc(S(=O)(=O)N3CCC4CCC(C(=O)NC(c5ccccc5)c5ccccc5)N4C(=O)C(NC(=O)C(C)NC)C3)c2)CCC2CCC(C(=O)NC(c3ccccc3)c3ccccc3)N2C1=O
IC50 [1]: > 1000 nM | IC50 [2]: > 1000 nM | IC50 [3]: > 1000 nM | IC50 [4]: > 1000 nM | IC50 [5]: > 1000 nM | viability, T/C [6]: 89.3% | viability, T/C [7]: 85.6% | viability, T/C [8]: 71.2% | viability, T/C [9]: 61.6% | viability, T/C (second compound 0.01 µM, first compound 0.316 µM): 73.2% | viability, T/C (second compound 0.01 µM, first compound 1 µM): 94.8% | viability, T/C [10]: 87.8% | viability, T/C [11]: 106% | viability, T/C [12]: 82.5% | viability, T/C [13]: 84.1% | viability, T/C (second compound 0.0316 µM, first compound 0.316 µM): 83.6% | viability, T/C (second compound 0.0316 µM, first compound 1 µM): 102% | viability, T/C [16]: 97.6% | viability, T/C [17]: 91.7% | viability, T/C [18]: 76.6% | viability, T/C [19]: 76.9% | viability, T/C (second compound 0.1 µM, first compound 0.316 µM): 86.7% | viability, T/C (second compound 0.1 µM, first compound 1 µM): 96.8% | viability, T/C [22]: 76.3% | viability, T/C [23]: 76.8% | viability, T/C [24]: 83.5% | viability, T/C [25]: 66.6% | viability, T/C (second compound 0.316 µM, first compound 0.316 µM): 69.7% | viability, T/C (second compound 0.316 µM, first compound 1 µM): 105% | viability, T/C [28]: 95.5% | viability, T/C [29]: 85.1% | viability, T/C [30]: 64.8% | viability, T/C [31]: 57.7% | viability, T/C (second compound 1 µM, first compound 0.316 µM): 69.9% | viability, T/C (second compound 1 µM, first compound 1 µM): 103%
